Results published in EP0465716A1, “Optically active thiazetoquino-line-3-carboxylic acid compound, method for preparation thereof, and a pharmaceutical composition comprising the same” (priority 1990, dated 1992).
Converted amounts (≈) assume the structure as drawn. Counter-ions that a name gives are not always drawn. Like-named read-outs stand apart in the source and are kept apart here.

Columns and labels:
Enterobacter cloacae 963 = test: MIC, twofold agar dilution method (standard laboratory strain); assay type: cell-based; settings: Enterobacter cloacae 963, Gram -; 10^6 cfu/ml; 18 hrs at 37 °C
Experimental: (§1) Overnight cultures in Mueller-Hinton broth were suspended by buffered saline gelatin. One loopful of the bacterial suspension (10⁶ or 10⁸ colony-forming units/ml) was incubated onto the plates containing test compounds. The plates were incubated for 18 hrs at 37 °C. The MIC was defined by the lowest concentration of the drug that inhibited visible growth of bacteria.

[1] = system: Escherichia coli NIHJ JC-2; test: as above; assay type: cell-based; settings: NIHJJC2; Escherichia coli NIHJ JC-2, Gram -; 10^6 cfu/ml; 18 hrs at 37 °C
Experimental: as §1

[2] = system: Pseudomonas aeruginosa IFO 3445; test: as above; assay type: cell-based; settings: IFO3445; Pseudomonas aeruginosa IFO 3445, Gram -; 10^6 cfu/ml; 18 hrs at 37 °C
Experimental: as §1

[3] = system: Serratia marcescens IAM 1184; test: as above; assay type: cell-based; settings: IAM1184; Serratia marcescens IAM 1184, Gram -; 10^6 cfu/ml; 18 hrs at 37 °C
Experimental: as §1

[4] = system: Staphylococuss aureus FDA 209PJC-1; test: as above; assay type: cell-based; settings: Staphylococuss aureus FDA 209PJC-1, Gram +; 10^6 cfu/ml; 18 hrs at 37 °C
Experimental: as §1

[5] = system: Klebsiella pneumoniae PCI-602; test: as above; assay type: cell-based
Experimental: as §1, with “Minimum inhibitory concentrations (MIC) of test compounds were determined by the twofold agar dilution method (Chemotherapy, 29(1), 76(1981)). Overnight” for “Overnight”

[6] = system: Acinetobacter calcoaceticus HNR 904; test: MIC, twofold agar dilution method (clinically isolated strain); assay type: cell-based; settings: HNR904; Acinetobacter calcoaceticus HNR 904, Gram -; 10^6 cfu/ml; 18 hrs at 37 °C
Experimental: as §1

[7] = system: Acinetobacter calcoaceticus HNR 916; test: as above; assay type: cell-based; settings: HNR916; Acinetobacter calcoaceticus HNR 916, Gram -; 10^6 cfu/ml; 18 hrs at 37 °C
Experimental: as §1

[8] = system: Acinetobacter calcoaceticus HNR 939; test: as above; assay type: cell-based; settings: HNR939; Acinetobacter calcoaceticus HNR 939, Gram -; 10^6 cfu/ml; 18 hrs at 37 °C
Experimental: as §1

[9] = system: Enterobacter cloacae HNR 1939; test: as above; assay type: cell-based; settings: HNR1939; Enterobacter cloacae HNR 1939, Gram -; 10^6 cfu/ml; 18 hrs at 37 °C
Experimental: as §1

[10] = system: Enterobacter cloacae HNR 1941; test: as above; assay type: cell-based; settings: HNR1941; Enterobacter cloacae HNR 1941, Gram -; 10^6 cfu/ml; 18 hrs at 37 °C
Experimental: as §1

[11] = system: Enterobacter cloacae HNR 1946; test: as above; assay type: cell-based; settings: HNR1946; Enterobacter cloacae HNR 1946, Gram -; 10^6 cfu/ml; 18 hrs at 37 °C
Experimental: as §1

[12] = system: Enterococcus faecalis HPC 948; test: as above; assay type: cell-based; settings: HPC948; Enterococcus faecalis HPC 948, Gram +; 10^6 cfu/ml; 18 hrs at 37 °C
Experimental: as §1

[13] = system: Enterococcus faecalis HPC 975; test: as above; assay type: cell-based; settings: HPC975; Enterococcus faecalis HPC 975, Gram +; 10^6 cfu/ml; 18 hrs at 37 °C
Experimental: as §1

[14] = system: Enterococcus faecalis HPC 984; test: as above; assay type: cell-based; settings: HPC984; Enterococcus faecalis HPC 984, Gram +; 10^6 cfu/ml; 18 hrs at 37 °C
Experimental: as §1

[15] = system: Klebsiella pneumoniae HNR 828; test: as above; assay type: cell-based; settings: HNR828; Klebsiella pneumoniae HNR 828, Gram -; 10^6 cfu/ml; 18 hrs at 37 °C
Experimental: as §1

[16] = system: Klebsiella pneumoniae HNR 858; test: as above; assay type: cell-based; settings: HNR858; Klebsiella pneumoniae HNR 858, Gram -; 10^6 cfu/ml; 18 hrs at 37 °C
Experimental: as §1

[17] = system: Klebsiella pneumoniae HNR 869; test: as above; assay type: cell-based; settings: HNR869; Klebsiella pneumoniae HNR 869, Gram -; 10^6 cfu/ml; 18 hrs at 37 °C
Experimental: as §1

[18] = system: Pseudomonas aeruginosa HNR 1472; test: as above; assay type: cell-based; settings: HNR1472; Pseudomonas aeruginosa HNR 1472, Gram -; 10^6 cfu/ml; 18 hrs at 37 °C
Experimental: as §1

[19] = system: Pseudomonas aeruginosa HNR 1489; test: as above; assay type: cell-based; settings: HNR1489; Pseudomonas aeruginosa HNR 1489, Gram -; 10^6 cfu/ml; 18 hrs at 37 °C
Experimental: as §1

[20] = system: Pseudomonas aeruginosa HNR 1537; test: as above; assay type: cell-based; settings: HNR1537; Pseudomonas aeruginosa HNR 1537, Gram -; 10^6 cfu/ml; 18 hrs at 37 °C
Experimental: as §1

[21] = system: Serratia marcescens HNR 1544; test: as above; assay type: cell-based; settings: HNR1544; Serratia marcescens HNR 1544, Gram -; 10^6 cfu/ml; 18 hrs at 37 °C
Experimental: as §1

[22] = system: Serratia marcescens HNR 1767; test: as above; assay type: cell-based; settings: HNR1767; Serratia marcescens HNR 1767, Gram -; 10^6 cfu/ml; 18 hrs at 37 °C
Experimental: as §1

[23] = system: Serratia marcescens HNR 1792; test: as above; assay type: cell-based; settings: HNR1792; Serratia marcescens HNR 1792, Gram -; 10^6 cfu/ml; 18 hrs at 37 °C
Experimental: as §1

[24] = system: Staphylococcuss aureus HPC 292; test: as above; assay type: cell-based; settings: Staphylococcuss aureus HPC 292, Gram +; 10^6 cfu/ml; 18 hrs at 37 °C
Experimental: as §1

[25] = system: Staphylococcuss aureus HPC 308; test: as above; assay type: cell-based; settings: Staphylococcuss aureus HPC 308, Gram +; 10^6 cfu/ml; 18 hrs at 37 °C
Experimental: as §1

[26] = system: Staphylococcuss aureus HPC 527; test: as above; assay type: cell-based; settings: Staphylococcuss aureus HPC 527, Gram +; 10^6 cfu/ml; 18 hrs at 37 °C
Experimental: as §1

Male mice of ddY strain = test: Convulsion inducing activity in combination with fenbufen; settings: thirty minutes after fenbufen 100 mg/kg orally
Experimental: Male mice of ddY strain, 5 weeks old, were used. Fenbufen suspended in 0.5 % carboxymethylcellulose was administered orally at a dose of 100 mg/kg. After thirty minutes, test compounds suspended in 0.5 % carboxymethylcellulose were injected intraperitoneally (i.p.) at a dose of 100 mg/kg or 300 mg/kg.

[27] = PCI602, Klebsiella pneumoniae PCI-602, Gram -, 10^6 cfu/ml, 18 hrs at 37 °C, read-out: MIC

| Structure (SMILES) | MIC (Enterobacter cloacae 963) | MIC [1] | MIC [2] | MIC [3] | MIC [4] | MIC [5, 27] | MIC [6] | MIC [7] | MIC [8] | MIC [9] | MIC [10] | MIC [11] | MIC [12] | MIC [13] | MIC [14] | MIC [15] | MIC [16] | MIC [17] | MIC [18] | MIC [19] | also measured |
| --- | --- | --- | --- | --- | --- | --- | --- | --- | --- | --- | --- | --- | --- | --- | --- | --- | --- | --- | --- | --- | --- |
| CC1Sc2c(C(=O)O)c(=O)c3cc(F)c(N4CC[C@@H](N)C4)c(F)c3n21 (single isomer, unassigned) [Example 26] | 0.05 µg/mL (≈ 0.136 µM) | 0.025 µg/mL (≈ 0.068 µM) | 0.1 µg/mL (≈ 0.272 µM) | 0.05 µg/mL (≈ 0.136 µM) | 0.05 µg/mL (≈ 0.136 µM) | 0.012 µg/mL (≈ 0.0327 µM) | 25 µg/mL (≈ 68 µM) | 0.1 µg/mL (≈ 0.272 µM) | 0.78 µg/mL (≈ 2.12 µM) | 0.1 µg/mL (≈ 0.272 µM) | 3.13 µg/mL (≈ 8.52 µM) | 0.2 µg/mL (≈ 0.544 µM) | 0.39 µg/mL (≈ 1.06 µM) | 3.13 µg/mL (≈ 8.52 µM) | 0.1 µg/mL (≈ 0.272 µM) | 1.56 µg/mL (≈ 4.25 µM) | 0.2 µg/mL (≈ 0.544 µM) | 0.78 µg/mL (≈ 2.12 µM) | 6.25 µg/mL (≈ 17 µM) | 0.1 µg/mL (≈ 0.272 µM) | MIC [20]: 6.25 µg/mL (≈ 17 µM); MIC [21]: 0.05 µg/mL (≈ 0.136 µM); MIC [22]: 6.25 µg/mL (≈ 17 µM); MIC [23]: 1.56 µg/mL (≈ 4.25 µM); MIC [24]: 3.13 µg/mL (≈ 8.52 µM); MIC [25]: 0.78 µg/mL (≈ 2.12 µM); MIC [26]: 0.05 µg/mL (≈ 0.136 µM) |
| O=C(O)c1cn(C2CC2)c2cc(N3CCNCC3)c(F)cc2c1=O [Ref. Drug A, ciprofloxacin hydrochloride] |  |  |  |  |  |  |  |  |  |  |  |  |  |  |  |  |  |  |  |  | MIC ([5]; Klebsiella pneumoniae, PCI602, 18 h): 0.012 µg/mL; Number of convulsion induced / Number of animals (Male mice of ddY strain; 100 mg/kg (i.p.)): 4 / 6; Number of convulsion induced / Number of animals (Male mice of ddY strain; 300 mg/kg (i.p.)): 6 / 6 |
| CC1Sc2c(C(=O)O)c(=O)c3cc(F)c(N4CCNCC4)cc3n21 (stereo not drawn) [Ref. Drug B, 6-fluoro-1-methyl-4-oxo-7-(1-piperazinyl)-1H,4H-[1,3]thiazeto[3,2-a]quinoline-3-carboxylic acid] | 0.05 µg/mL (≈ 0.143 µM) | 0.025 µg/mL (≈ 0.0716 µM) | 0.2 µg/mL (≈ 0.572 µM) | 0.05 µg/mL (≈ 0.143 µM) | 0.1 µg/mL (≈ 0.286 µM) | 0.012 µg/mL (≈ 0.0343 µM) | > 100 µg/mL | 0.78 µg/mL (≈ 2.23 µM) | 6.25 µg/mL (≈ 17.9 µM) | 0.2 µg/mL (≈ 0.572 µM) | 12.5 µg/mL (≈ 35.8 µM) | 0.39 µg/mL (≈ 1.12 µM) | 6.25 µg/mL (≈ 17.9 µM) | 50 µg/mL (≈ 143 µM) | 0.78 µg/mL (≈ 2.23 µM) | 1.56 µg/mL (≈ 4.46 µM) | 0.2 µg/mL (≈ 0.572 µM) | 0.78 µg/mL (≈ 2.23 µM) | 6.25 µg/mL (≈ 17.9 µM) | 0.1 µg/mL (≈ 0.286 µM) | MIC [20]: 6.25 µg/mL (≈ 17.9 µM); MIC [21]: 0.05 µg/mL (≈ 0.143 µM); MIC [22]: 50 µg/mL (≈ 143 µM); MIC [23]: 6.25 µg/mL (≈ 17.9 µM); MIC [24]: 50 µg/mL (≈ 143 µM); MIC [25]: 25 µg/mL (≈ 71.6 µM); MIC [26]: 0.39 µg/mL (≈ 1.12 µM) |
| NC1CCN(c2c(F)cc3c(=O)c(C(=O)O)c4n(c3c2F)CS4)C1 (stereo not drawn) [Ref. Drug E, 7-(3-amino-1-pyrrolidinyl)-6,8-difluoro-4-oxo-1H,4H-[1,3]thiazeto[3,2-a]quinoline-3-carboxylic acid] | 0.1 µg/mL (≈ 0.283 µM) | 0.1 µg/mL (≈ 0.283 µM) | 0.2 µg/mL (≈ 0.566 µM) | 0.2 µg/mL (≈ 0.566 µM) | 0.1 µg/mL (≈ 0.283 µM) | 0.05 µg/mL (≈ 0.142 µM) | > 100 µg/mL | 0.39 µg/mL (≈ 1.1 µM) | > 100 µg/mL | 0.78 µg/mL (≈ 2.21 µM) | > 100 µg/mL | 1.56 µg/mL (≈ 4.41 µM) | 50 µg/mL (≈ 142 µM) | > 100 µg/mL | 0.78 µg/mL (≈ 2.21 µM) | 50 µg/mL (≈ 142 µM) | 0.78 µg/mL (≈ 2.21 µM) | 50 µg/mL (≈ 142 µM) | > 100 µg/mL | 0.39 µg/mL (≈ 1.1 µM) | MIC [20]: > 100 µg/mL; MIC [21]: 0.1 µg/mL (≈ 0.283 µM); MIC [22]: > 100 µg/mL; MIC [23]: > 100 µg/mL; MIC [24]: > 100 µg/mL; MIC [25]: 100 µg/mL (≈ 283 µM); MIC [26]: 0.2 µg/mL (≈ 0.566 µM) |
